Reference: patent US4443448A, “Indane derivatives, pharmaceutical compositions thereof and method of preparation” (priority 1980, dated 1984)
Read-outs that look alike come from different tables or passages of the source.

Experiments:
in vivo [1] = test: in vivo; parameters: species or system rats; details: for Ratio catalep./Amphet.: catalepsy ED50 / amphetamine antagonism ED50; for ED50: rat, in vivo, po
Protocol: A vertical wire netting (50 cm×49 cm). The meshes (openings) of the netting are square (1 cm×1 cm). The wire diameter is 2 mm.
The animals are labeled and used in groups of five. The test substance is administered orally (p.o) at 4 dose levels selected from the fixed dose scale.
The animals are placed in the middle of the vertical wire netting 60, 120, 180, 240, 300 and 360 minutes after administration of the test compound. The animals are considered cataleptic when they remain immobile during a period of 15 seconds.
This cataleptic reaction is designated +. If the rats are "atonic" and passively slide down the wire mesh they are considered not cataleptic. If the animals climb up and down the wire mesh they are nor cataleptic.
In both situations the designation--is used.

amphetamine = test: Amphetamine antagonism in rats; assay type: in vivo; details: for ED50: Rattus norvegicus, po, read-out: Amphetamine antag. ED50 p.o.
Protocol: Amphetamine antagonism (ED50 mg/kg i.p.)
(§1) Perspex observation cages without bottom and lid, consisting of 5 sections each measuring 12×25×30 cm.
The test substance is given p.o. in a reasonable dose based on the determined LD50. Two or 24 hours later an intravaneous injection of amphetamine sulphate 13.6 mg/kg (10 mg/kg amphetamine base) is given, after which the rats are placed individually in the cages. The cages are placed on white corrugated paper. Five rats are used for each dose level. Observations are made after 55 minutes and 65 minutes-observation time: 1 minute. The animals are observed for stereotypy (movements of the head, compulsive gnawing). […] If the compound has full antagonistic effect another group of rats is used at a lower dose. […] The result is stated as fractions: 0/5, 1/5, 2/5, 3/5, 4/5 and 5/5, where 0, 1, 2, 3, 4 and 5 indicate the number of rats which have not shown stereotypy at the dose in question. The results are calculated as ED50 in mg/kg.

methylphenidate = test: Methylphenidate antagonism in mice; assay type: in vivo; details: for ED50: Mus musculus, ip
Protocol: Methylphenidate antagonism (ED50 mg/kg i.p.)
as §1
3×2 mice are used for each dose level. Two or 24 hours after injection of test substance, methylphenidate, 60 mg/kg, is injected s.c. After administration of methylphenidate the mice are placed in the observation cages, 2 in each cage, where they remain for exactly 1 hour. The cages were placed on corrugated paper, the corrugations facing upwards. It is examined whether the mice have been biting the corrugated paper or not. […] If one or more of the control pairs have not been biting, the test has to be repeated on a new set of mice.
The result is stated in fractions: 0/3, 1/3, 2/3 and 3/3 where 0, 1, 2 and 3 are the number of pairs which have not been biting on receipt of the dose in question.

[2] = Mouse grid shock (analgesia); assay type: in vivo; details: mice, minimal effective dose, in mg/kg
Protocol: The mouse grid consists of a perspex cage with wire grid bottom and a perspex lid, on which is placed a microphone sensitive to the frequency of a mouse squeak. A stimulator with motordriven potentiometer applies a sequence of square wave impulses of continuously increasing milliamperage to the grid. Frequency of impulses 20 cycles/sec., duration 5 msec. Milliamperage is recorded on a digital amperemeter connected to the stimulator. Activation of the microphone by a mouse-squeak cuts off the current and the final milliamperage appears on the meter.
Five mice are used for each dose level. Each mouse serves as its own control.
Prior to the administration of test substance the animals are placed on the grid one at a time, and the pain threshold is determined by increasing the current intensity until the mouse squeaks. The pain threshold may be read on the milliamperemeter. Fifteen minutes and 30 minutes after administration of test substance the mice are tested again and the pain thresholds recorded.
Analgesic effect is present, when the pain threshold is increased over the pre-dosing value (control value). The results are stated as % increase in pain threshold calculated on the basis of the control value.
The registration can also be done as an on-line procedure. In this case the punching instruction and punching cards will be provided automatically and the results will be registered as a minimal effective dose (MED) determined after van der Waerdens X-test.

in vivo [3] = test: in vivo
[4] = rats, p.o., strongest effect within first 6 hours, read-out: Catalep. (catalepsy wire mesh, rat, max, ED50)
[5] = rats, p.o., amphetamine 10 mg/kg base i.v.
[6] = 2 h, read-out: MePh antag. ED50 2 hr i.p., mice, test substance i.p., 2 hr before methylphenidate 60 mg/kg s.c.

SMILES | Ratio catalep./Amphet. (in vivo [1]) | ED50 (in vivo [1]; [4]) | ED50 (amphetamine; [5]) | ED50 (methylphenidate; [6]) | MED Grid Shock [2] | LD50 (in vivo [3]; iv) | ED50 (in vivo [1]; Catalep. (catalepsy wire mesh, rat, max, ED50)) | ED50 (amphetamine) | ED50 (methylphenidate; read-out: MePh antag. ED50 2 hr i.p., mice, test substance i.p., 2 hr before methylphenidate 60 mg/kg s.c.) | LD50 (in vivo [3]; ip) | Catalep. (catalepsy wire mesh, rat, max, ED50) (in vivo [1]; rats, p.o., strongest effect within first 6 hours) | Amphetamine antag. ED50 p.o. (amphetamine; [5]) | MePh antag. ED50 2 hr i.p. (methylphenidate; mice, test substance i.p., 2 hr before methylphenidate 60 mg/kg s.c., 120 min)
Cc1ccc2c(c1)[C@H](N1CCN(C)CC1)C[C@H]2c1ccc(F)cc1 (relative stereo) [Lu 17-048] | 0.7 | 4.8 mg/kg | 6.7 mg/kg | 0.6 mg/kg | 0.16 | 80 mg/kg |  |  |  |  |  |  | 
CC(C)N1CCN(C2CC(c3ccc(F)cc3)c3ccc(C(F)(F)F)cc32)CC1 (centres unmarked) [Lu 18-050] | 2.4 | 0.52 mg/kg | 0.22 mg/kg | 0.44 mg/kg | 10 | 57 mg/kg |  |  |  |  |  |  | 
Cc1ccc2c(c1)[C@H](N1CCN(CCO)CC1)C[C@H]2c1ccc(F)cc1 (relative stereo) [Lu 17-050] | 0.8 | 7.7 mg/kg | 9.4 mg/kg | 3.4 mg/kg | 0.63 | 80 mg/kg |  |  |  |  |  |  | 
OCC(O)CN1CCN(C2CC(c3ccc(F)cc3)c3ccc(C(F)(F)F)cc32)CC1 (centres unmarked) [Lu 18-063] | 3.2 | 0.38 mg/kg | 0.12 mg/kg | 0.4 mg/kg | 1.25 | 57 mg/kg |  |  |  |  |  |  | 
OCCN1CCN([C@@H]2C[C@@H](c3ccccc3)c3ccc(C(F)(F)F)cc32)CC1 (relative stereo) [Lu 18-089] | 0.5 | 2.7 mg/kg | 5 mg/kg | 2.2 mg/kg | 2.5 | 69 mg/kg |  |  |  |  |  |  | 
CSc1ccc2c(c1)C(N1CCN(C(C)C)CC1)CC2c1ccc(F)cc1 (centres unmarked) [Lu 17-111] | 0.9 | 7.1 mg/kg | 7.8 mg/kg | 2.3 mg/kg | 1.3 | 69 mg/kg |  |  |  |  |  |  | 
CN1CCN([C@@H]2C[C@@H](c3ccccc3)c3ccc(Cl)cc32)CC1 (relative stereo) [Lu 14-063] |  | > 40 mg/kg | > 40 mg/kg | 29 mg/kg | 5 | 80 mg/kg |  |  |  |  |  |  | 
CN1CCN([C@@H]2C[C@@H](c3ccc(F)cc3)c3ccc(Cl)cc32)CC1 (relative stereo) [Lu 17-121] | 0.3 | 3 mg/kg | 10 mg/kg | 2 mg/kg | 0.63 | 68 mg/kg |  |  |  |  |  |  | 
CSc1ccc2c(c1)[C@H](N1CCN(C)CC1)C[C@H]2c1ccc(F)cc1 (relative stereo) [Lu 17-055] | 0.7 | 7.2 mg/kg | 10 mg/kg | 1.2 mg/kg | 5 | 68 mg/kg |  |  |  |  |  |  | 
OCCN1CCN(C2CC(c3ccc(F)cc3)c3ccc(C(F)(F)F)cc32)CC1 (centres unmarked) [Lu 18-012] | 2 |  | 0.16 mg/kg | 0.03 mg/kg | 0.6 | 56 mg/kg | 0.3 mg/kg |  |  |  |  |  | 
O=C(CCCN1CCC(O)(c2ccc(Cl)cc2)CC1)c1ccc(F)cc1 [haloperidol, reference compound] | 1.0 | 0.4 mg/kg |  |  | < 5 |  |  | 0.4 mg/kg | 0.04 mg/kg | 226 mg/kg |  |  | 
OCCN1CCN([C@@H]2C[C@@H](c3ccc(F)cc3)c3ccc(F)cc32)CC1 (relative stereo) [Lu 13-117, 1-(2-hydroxyethyl)-4-(3-(4'-fluorophenyl)-6-fluoro-1-indanyl)piperazine] | 13 | 79 mg/kg | 6 mg/kg | 3 mg/kg | 0.63 | 113 mg/kg |  |  |  |  |  |  | 
CSc1ccc2c(c1)C(N1CCN(CCCO)CC1)CC2c1ccc(F)cc1 (centres unmarked) [Lu 17-068] | 0.7 | 1.3 mg/kg | 1.8 mg/kg | 0.8 mg/kg | 0.31 | 94 mg/kg |  |  |  |  |  |  | 
OCCN1CCN(CCCN2c3ccccc3Sc3ccc(C(F)(F)F)cc32)CC1 [fluphenazine, reference compound] | 0.43 | 0.3 mg/kg | 0.7 mg/kg | 0.04 mg/kg | 2.5-5 | 98 mg/kg |  |  |  |  |  |  | 
OCCCN1CCN([C@@H]2C[C@@H](c3ccc(F)cc3)c3ccc(Cl)cc32)CC1 (relative stereo) [Lu 17-127] | 1.7 | 0.5 mg/kg | 0.3 mg/kg | 0.4 mg/kg | 0.31 | 80 mg/kg |  |  |  |  |  |  | 
COc1ccc2c(c1)C(N1CCN(CCO)CC1)CC2c1ccc(F)cc1 (centres unmarked) [Lu 18-006] | 0.7 | 12 mg/kg | 16.6 mg/kg | 8.6 mg/kg | 5 | 113 mg/kg |  |  |  |  |  |  | 
CN1CCN(C2CC(c3ccc(F)cc3)c3ccc(F)cc32)CC1 (single isomer, unassigned; (+)) [Lu 17-151, (+) 1-Methyl-4-(3-(4'-fluorophenyl)-6-fluoro-1-indanyl) piperazine] | 2.7 |  |  |  | 0.63 | 113 mg/kg |  |  |  |  | 16.4 mg/kg | 6.1 mg/kg | 1.0 mg/kg
CC(C)N1CCN(C2CC(c3ccc(F)cc3)c3ccc(Cl)cc32)CC1 (centres unmarked) [Lu 17-129] | 0.4 | 0.8 mg/kg | 1.8 mg/kg | 0.8 mg/kg | 5 | 80 mg/kg |  |  |  |  |  |  | 
OCCCN1CCN(C2CC(c3ccc(F)cc3)c3ccc(C(F)(F)F)cc32)CC1 (centres unmarked) [Lu 18-048] | 0.4 | 0.07 mg/kg | 0.16 mg/kg | 0.12 mg/kg | 1.3 | 57 mg/kg |  |  |  |  |  |  | 
